The values below come from patent US20210108198A1, “APPLICATION OF COMPOUND OR TRADITIONAL CHINESE MEDICINE EXTRACT IN PREPARATION OF NUCLEIC ACID DELIVERY AGENT AND RELATED PRODUCTS THEREOF” (INSTITUTE OF BASIC MEDICAL SCIENCES CHINESE ACADEMY OF …, priority 2017, published 2021).

Entries after “also recorded” stand apart in the source; their conditions may differ.

One assay deals with A549 cell. The experiment in a line: RT-qPCR detection of nucleic acid delivered by lipid into A549 cells. In kind it is cell-based, human. Conditions: RNA 100 nM; for delivery of double-stranded HJT-sRNA-m7 by single lipid (real-time PCR): 12 hours. On the technique in general: In qPCR the cycle at which signal appears reflects the starting amount.
For assay [1], the system named is protein expression of the corresponding knockdown genes in A549 cells. The experiment in a line: Western blot of knockdown genes after lipid-mediated siRNA delivery into A549 cells. Conditions: LAMP2, XPN2, Ssu72, CPSF4 or β-actin siRNA 400 nM; reverse evaporation method; FIG. 82. Format: cell-based, human. Here is the method: 3.3.1 MRC-5 cell (pulmonary embryonic fibroblast), and A549 cell (human lung adenocarcinoma cell) were cultured to logarithmic growth phase, and then plated into 12-well plates at a cell density of 6×10^5/1 mL medium/well; MRC-5 cells were cultured in Eagle's MEM medium (MEM, Gibco); A549 cells were cultured in Ham's F-12 medium (HyClone); followed by incubation overnight at 37° C., and the follow-up experiments were performed after the cells were attached to the walls.
4) Lipid nucleic acid mixture: the mixture of lipid and nucleic acid prepared from the step 2 were added into cells and mixed, and the final concentration of nucleic acid was 400 nM.
3.3.3 After 24 hours of treatment, the cells were stimulated with the stimulant (1 μg/mL poly (I:C) (P1530, Sigma-Aldrich) as double-stranded RNA viruses mimetics) or 3 ng/mL transforming growth factor TGFβ1 (Pepro Tech)). […]
In general terms: Immunoblotting shows a protein as a band on a membrane.

As to `CCCCCCCCCCCCCCCCCCC[C@@H](O)[C@@H](N)CO` [No. 41, Sphinganine (d22:0)], the “delivery of double-stranded HJT-sRNA-m7 by single lipid (real-time PCR)” value in the assay on A549 cell (boiling (heating) method, 2.5 μL single lipid) is listed as “delivered HJT-sRNA-m7 double-stranded RNA into A549 cells; also recorded: about twice that of RNAiMAX”; in the assay with A549 cell (reverse evaporation method) it was “delivered HJT-sRNA-m7 double-stranded RNA into A549 cells; also recorded: significantly higher than that of RNAiMAX”. Besides, the “delivery of single-stranded HJT-sRNA-m7 by single lipid (real-time PCR)” value in the assay on A549 cell (boiling (heating) method, 12 hours (No. 37: 3 hours)) is “delivered HJT-sRNA-m7 single-stranded RNA into A549 and MRC-5 cells”. Also, the “protein knockdown effect (Western blot)” value in assay [1] is on record as “significantly higher than the inhibitory effect of HJT-sRNA-m7 mediated by RNAiMAX”.
